Experiments:
[1] = tested on: camalexin; assay: Camalexin quantification by LC-MS; assay type: in vivo, Arabidopsis thaliana; conditions: 100 μM, 24 h, 14-day-old Col-0 plants
Protocol: For each treatment, camalexin was extracted from a pool of 14-day-old Arabidopsis. Briefly, 100 mg of ground-frozen samples were soaked using 80% (v:v) methanol in 1:1 (m/v) ratio. After homogenization, the supernatant was recovered through centrifugation at 17,000×g for 5 min and evaporated at 50° C. in nitrogen gas atmosphere. The residues were finally resuspended in high-performance LC-grade methanol and filtrated with 0.22-μm filters. Each pool was then analysed three times by LC-MS, using a reverse-phase LUNA® Omega 5 μm Polar C18 column (250×4.6 mm). The mobile phases were composed of 0.1% […] (solvent A) and acetonitrile (solvent B). The applied gradient was as follows: 0-2 min, 10% B; 2-13 min, 10-98% B; 13-23 min, 98% B; 23-25 min, 98-10% B; 25-30 min, […]; post-run 1 min.

[2] = tested on: Botrytis cinerea; assay: B. cinerea inoculation of Arabidopsis leaves: necrotic lesion area and in planta growth; assay type: in vivo
Protocol: For “in planta” growth test of Botrytis cinerea and histochemical assays, five-week-old Col-0 plants were germinated in soil and grown in controlled chamber ( 8/16 h light/dark at 22/20° C. day/night) with a relative humidity equal to 70%. Treatments were performed by applying 40-50 μl of fresh-prepared and filtered solution per leaf.
Botrytis cinerea (strain B05.10, from the INRA/IJPB Institute, Versailles, France) was grown on potato dextrose agar medium at 21° C., with a photoperiod of 12 h light/12 h dark. Leaves were inoculated with two 5-μL droplets of B. cinerea spores (5×10^5 spores ml-1). At the indicated time points, genomic DNA from whole leaves was extracted following the modified protocol of Edwards et al. (A simple and rapid method for the preparation of plant genomic DNA for PCR analysis. Nucl. Acid. Res. 1991, vol. 19, 13491991) and fungal biomass was quantified as described by Gachon and Saindrenan (Real-time PCR monitoring of fungal development in Arabidopsis thaliana infected by Alternaria brassicicola and Botrytis cinerea. Plant Physiol Biochem. 2004, vol. 42, 367-371).
Three days after fungus inoculation, the areas of the developing necrotic lesions were analysed by ImageJ software and the B. cinerea “in planta” growth was evaluated through qPCR. […]

[3] = tested on: callose deposition; assay: Callose staining in Arabidopsis leaves; assay type: in vivo, Arabidopsis thaliana; conditions: 6 and 24 h after treatment; 100 μM AA9_COS, 100 μM cellobiose or 1 μM FLG22; 5-week old plants
Protocol: Callose deposits quantification was performed essentially as described by Zarattini et al. (The bile acid deoxycholate elicits defences in Arabidopsis and reduces bacterial infection. Mol Plant Pathol. 2017, vol. 18(4), 540-554). […] Leaves were examined by stereofluorescence microscopy with an Azio Zoom V.16 (Carl Zeiss Inc., Oberkochen, Germany) and callose spots were quantified using ImageJ software.
Among them, several genes were associated to callose deposition in the cell wall (FIG. 4).

OC[C@H]1O[C@@H](O[C@H]2[C@H](O)[C@@H](O)[C@H](O)O[C@@H]2CO)[C@H](O)[C@@H](O)[C@@H]1O [Cellobiose, β-D-glucopyranosyl(1→4)D-glucopyranose]
camalexin level [1]: 3.7 ± 1.8 ng/g
reduction of average sizes of necrotic lesions compared with untreated leaves ([2]; 100 μM pre-treatment 24 h before inoculation, three days after inoculation): a little protection
reduction of B. cinerea in planta growth (fungus biomass, qPCR) ([2]; 100 μM pre-treatment, 3 days after infection): slight reduction
callose accumulation [3]: no visible callose spots

Source: patent US12628822B2, “Plant pathogen defence elicitors” (UNIVERSITÉ LIBRE DE BRUXELLES, priority 2020, dated 2026)
